Data published in the kinase profiling compilation of Christmann-Franck et al. (2016).

Experiments:
Assay in all cases: radiometric filter-binding kinase assay
CSK (human) = CSK (human) (UniProt P41240)
MAPK10 (human) = MAPK10 (human) (UniProt P53779)
NUAK1 (human) = NUAK1 (human) (UniProt O60285)
AURKA (human) = AURKA (human) (UniProt O14965)
SRC (human) = SRC (human) (UniProt P12931)
NEK2 (human) = NEK2 (human) (UniProt P51955)
CaMK1 (human) = CaMK1 (human) (UniProt Q14012)
ROCK2 (rat) = conditions: accession and sequence are those of the human protein
PIM1 (human) = PIM1 (human) (UniProt P11309)
DYRK2 (human) = DYRK2 (human) (UniProt Q92630)
SYK (human) = SYK (human) (UniProt P43405)
MAPKAPK5 (human) = MAPKAPK5 (human) (UniProt Q8IW41)
MAPK15 (human) = MAPK15 (human) (UniProt Q8TD08)
MARK3 (human) = MARK3 (human) (UniProt P27448)
MARK3 (human), sequence (P27448 whole entry, looked up): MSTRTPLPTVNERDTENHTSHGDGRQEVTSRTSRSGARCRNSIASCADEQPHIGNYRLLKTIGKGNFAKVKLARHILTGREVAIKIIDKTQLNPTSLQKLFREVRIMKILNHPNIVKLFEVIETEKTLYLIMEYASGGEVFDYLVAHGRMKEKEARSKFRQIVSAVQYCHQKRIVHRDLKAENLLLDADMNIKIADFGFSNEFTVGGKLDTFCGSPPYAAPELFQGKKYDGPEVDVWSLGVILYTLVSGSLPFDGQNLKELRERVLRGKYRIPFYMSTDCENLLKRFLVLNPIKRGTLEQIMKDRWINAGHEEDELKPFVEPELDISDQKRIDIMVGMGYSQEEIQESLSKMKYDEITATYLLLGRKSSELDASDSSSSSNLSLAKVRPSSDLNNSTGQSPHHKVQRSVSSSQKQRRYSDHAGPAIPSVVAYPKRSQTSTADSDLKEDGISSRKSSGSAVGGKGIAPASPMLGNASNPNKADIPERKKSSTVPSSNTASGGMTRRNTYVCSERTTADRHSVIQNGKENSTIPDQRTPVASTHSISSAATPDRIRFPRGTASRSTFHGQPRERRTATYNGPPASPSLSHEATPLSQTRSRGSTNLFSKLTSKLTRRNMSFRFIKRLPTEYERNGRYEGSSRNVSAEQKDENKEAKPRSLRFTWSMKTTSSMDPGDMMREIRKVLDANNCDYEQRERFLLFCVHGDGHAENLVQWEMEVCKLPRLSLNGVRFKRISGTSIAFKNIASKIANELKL

RIPK2 (human) = RIPK2 (human) (UniProt O43353)
HIPK1 (human) = HIPK1 (human) (UniProt Q86Z02)
PAK7 (human) = PAK7 (human) (UniProt Q9P286)
PAK7 (human), sequence (Q9P286 whole entry, looked up): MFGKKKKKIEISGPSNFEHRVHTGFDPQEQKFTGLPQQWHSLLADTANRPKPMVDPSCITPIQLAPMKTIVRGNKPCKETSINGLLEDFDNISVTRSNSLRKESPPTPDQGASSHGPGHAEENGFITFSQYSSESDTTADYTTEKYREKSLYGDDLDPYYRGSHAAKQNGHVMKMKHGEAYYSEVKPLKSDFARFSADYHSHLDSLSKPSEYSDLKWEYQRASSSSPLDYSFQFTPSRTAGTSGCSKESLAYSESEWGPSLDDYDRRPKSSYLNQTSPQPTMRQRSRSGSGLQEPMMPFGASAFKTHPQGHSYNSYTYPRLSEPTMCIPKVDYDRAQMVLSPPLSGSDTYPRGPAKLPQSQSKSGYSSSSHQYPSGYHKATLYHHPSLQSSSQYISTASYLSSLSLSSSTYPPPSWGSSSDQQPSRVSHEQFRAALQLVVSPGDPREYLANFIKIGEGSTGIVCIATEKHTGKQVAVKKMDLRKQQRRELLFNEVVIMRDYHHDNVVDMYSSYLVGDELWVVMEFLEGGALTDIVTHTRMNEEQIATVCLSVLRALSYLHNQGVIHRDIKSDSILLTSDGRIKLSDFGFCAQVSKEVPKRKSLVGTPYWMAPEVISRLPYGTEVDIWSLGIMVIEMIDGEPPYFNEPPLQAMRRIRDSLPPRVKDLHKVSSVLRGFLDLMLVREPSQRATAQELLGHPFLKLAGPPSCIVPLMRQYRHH

INSRR (human) = INSRR (human) (UniProt P14616)
INSRR (human), sequence (P14616 whole entry, looked up): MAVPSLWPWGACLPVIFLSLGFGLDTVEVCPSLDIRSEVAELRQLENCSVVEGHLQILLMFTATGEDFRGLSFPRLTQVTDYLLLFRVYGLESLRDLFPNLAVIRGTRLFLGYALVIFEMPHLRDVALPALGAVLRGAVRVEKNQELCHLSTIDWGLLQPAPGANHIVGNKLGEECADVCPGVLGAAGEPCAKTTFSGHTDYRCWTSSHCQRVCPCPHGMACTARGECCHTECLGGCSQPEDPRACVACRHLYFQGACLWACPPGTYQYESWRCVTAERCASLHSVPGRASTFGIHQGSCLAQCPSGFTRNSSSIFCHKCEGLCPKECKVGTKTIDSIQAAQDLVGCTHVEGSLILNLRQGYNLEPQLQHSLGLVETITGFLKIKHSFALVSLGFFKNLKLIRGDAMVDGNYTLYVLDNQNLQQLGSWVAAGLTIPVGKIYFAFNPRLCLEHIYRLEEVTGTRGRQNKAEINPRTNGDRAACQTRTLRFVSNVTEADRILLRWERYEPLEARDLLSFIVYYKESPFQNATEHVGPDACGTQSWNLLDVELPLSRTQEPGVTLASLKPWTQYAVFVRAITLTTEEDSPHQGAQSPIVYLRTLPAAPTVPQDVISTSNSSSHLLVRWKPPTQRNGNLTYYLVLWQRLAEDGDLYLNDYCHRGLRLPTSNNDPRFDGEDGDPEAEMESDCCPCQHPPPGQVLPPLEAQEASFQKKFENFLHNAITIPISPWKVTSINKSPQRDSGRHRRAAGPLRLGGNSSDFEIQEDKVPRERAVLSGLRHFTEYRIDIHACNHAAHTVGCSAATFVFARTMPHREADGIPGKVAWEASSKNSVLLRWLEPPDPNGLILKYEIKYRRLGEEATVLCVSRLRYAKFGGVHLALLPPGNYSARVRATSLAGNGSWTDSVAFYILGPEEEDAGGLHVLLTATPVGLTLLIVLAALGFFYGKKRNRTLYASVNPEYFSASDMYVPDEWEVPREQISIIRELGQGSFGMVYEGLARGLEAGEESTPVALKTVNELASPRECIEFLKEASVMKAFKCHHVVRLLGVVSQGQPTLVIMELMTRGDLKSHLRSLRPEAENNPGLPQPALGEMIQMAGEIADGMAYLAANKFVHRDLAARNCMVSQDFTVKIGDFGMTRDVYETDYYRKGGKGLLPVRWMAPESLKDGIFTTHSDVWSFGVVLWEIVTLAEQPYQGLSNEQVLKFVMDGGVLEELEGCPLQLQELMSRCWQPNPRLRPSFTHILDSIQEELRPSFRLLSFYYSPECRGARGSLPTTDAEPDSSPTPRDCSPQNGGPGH

EEF2K (human) = EEF2K (human) (UniProt O00418)
YES1 (human) = YES1 (human) (UniProt P07947)
RPS6KA1 KD1 KD2 (human) = RPS6KA1 KD1 KD2 (human) (UniProt Q15418)
RPS6KA1 KD1 KD2 (human), sequence (Q15418 whole entry, looked up): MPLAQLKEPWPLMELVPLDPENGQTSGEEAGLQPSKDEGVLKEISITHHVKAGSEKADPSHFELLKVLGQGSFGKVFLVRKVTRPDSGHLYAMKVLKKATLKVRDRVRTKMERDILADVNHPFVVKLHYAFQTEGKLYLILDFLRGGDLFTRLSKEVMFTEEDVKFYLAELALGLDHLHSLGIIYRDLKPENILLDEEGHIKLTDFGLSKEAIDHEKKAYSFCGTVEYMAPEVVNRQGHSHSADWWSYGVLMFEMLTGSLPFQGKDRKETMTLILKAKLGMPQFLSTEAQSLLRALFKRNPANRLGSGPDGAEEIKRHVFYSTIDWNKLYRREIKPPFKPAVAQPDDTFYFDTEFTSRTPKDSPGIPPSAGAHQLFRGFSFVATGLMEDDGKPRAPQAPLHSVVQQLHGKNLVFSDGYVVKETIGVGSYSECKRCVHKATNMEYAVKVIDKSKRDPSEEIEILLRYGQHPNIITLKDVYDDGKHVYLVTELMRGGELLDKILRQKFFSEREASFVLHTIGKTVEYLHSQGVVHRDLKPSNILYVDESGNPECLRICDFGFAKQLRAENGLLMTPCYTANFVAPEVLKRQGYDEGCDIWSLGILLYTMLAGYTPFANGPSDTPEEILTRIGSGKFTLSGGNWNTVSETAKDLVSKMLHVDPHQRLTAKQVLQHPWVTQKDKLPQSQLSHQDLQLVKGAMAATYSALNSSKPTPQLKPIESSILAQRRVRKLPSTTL

IGF1R (human) = IGF1R (human) (UniProt P08069)
CSNK2A1 (human) = CSNK2A1 (human) (UniProt P68400)
CSNK2A1 (human), sequence (P68400 whole entry, looked up): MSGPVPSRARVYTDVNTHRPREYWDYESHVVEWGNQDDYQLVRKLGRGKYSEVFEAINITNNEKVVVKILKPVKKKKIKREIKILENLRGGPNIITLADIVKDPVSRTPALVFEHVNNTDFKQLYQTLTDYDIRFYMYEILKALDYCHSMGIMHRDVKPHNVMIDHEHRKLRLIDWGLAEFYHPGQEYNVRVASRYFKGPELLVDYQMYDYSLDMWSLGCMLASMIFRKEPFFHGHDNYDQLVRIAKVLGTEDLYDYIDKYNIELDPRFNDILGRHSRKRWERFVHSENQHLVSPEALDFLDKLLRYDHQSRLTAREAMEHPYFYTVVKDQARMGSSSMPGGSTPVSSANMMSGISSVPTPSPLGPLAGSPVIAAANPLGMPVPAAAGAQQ

MELK (human) = MELK (human) (UniProt Q14680)
LCK (mouse) = conditions: accession and sequence are those of the human protein
MAPK13 (human) = MAPK13 (human) (UniProt O15264)
GSK3B (human) = GSK3B (human) (UniProt P49841)
IKBKE (human) = IKBKE (human) (UniProt Q14164)
PAK4 (human) = PAK4 (human) (UniProt O96013)

AURKA (human), sequence (O14965 whole entry, looked up): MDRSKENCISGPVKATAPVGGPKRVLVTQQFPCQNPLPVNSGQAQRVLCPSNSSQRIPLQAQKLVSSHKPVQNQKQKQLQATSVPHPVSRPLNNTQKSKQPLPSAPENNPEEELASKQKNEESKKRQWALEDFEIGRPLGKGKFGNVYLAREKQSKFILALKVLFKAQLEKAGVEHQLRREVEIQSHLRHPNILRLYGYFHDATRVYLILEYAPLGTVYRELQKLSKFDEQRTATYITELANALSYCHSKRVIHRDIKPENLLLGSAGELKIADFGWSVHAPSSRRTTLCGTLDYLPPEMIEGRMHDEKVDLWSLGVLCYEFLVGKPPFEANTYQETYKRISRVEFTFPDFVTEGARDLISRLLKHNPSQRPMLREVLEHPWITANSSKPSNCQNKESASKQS
NUAK1 (human), sequence (O60285 whole entry, looked up): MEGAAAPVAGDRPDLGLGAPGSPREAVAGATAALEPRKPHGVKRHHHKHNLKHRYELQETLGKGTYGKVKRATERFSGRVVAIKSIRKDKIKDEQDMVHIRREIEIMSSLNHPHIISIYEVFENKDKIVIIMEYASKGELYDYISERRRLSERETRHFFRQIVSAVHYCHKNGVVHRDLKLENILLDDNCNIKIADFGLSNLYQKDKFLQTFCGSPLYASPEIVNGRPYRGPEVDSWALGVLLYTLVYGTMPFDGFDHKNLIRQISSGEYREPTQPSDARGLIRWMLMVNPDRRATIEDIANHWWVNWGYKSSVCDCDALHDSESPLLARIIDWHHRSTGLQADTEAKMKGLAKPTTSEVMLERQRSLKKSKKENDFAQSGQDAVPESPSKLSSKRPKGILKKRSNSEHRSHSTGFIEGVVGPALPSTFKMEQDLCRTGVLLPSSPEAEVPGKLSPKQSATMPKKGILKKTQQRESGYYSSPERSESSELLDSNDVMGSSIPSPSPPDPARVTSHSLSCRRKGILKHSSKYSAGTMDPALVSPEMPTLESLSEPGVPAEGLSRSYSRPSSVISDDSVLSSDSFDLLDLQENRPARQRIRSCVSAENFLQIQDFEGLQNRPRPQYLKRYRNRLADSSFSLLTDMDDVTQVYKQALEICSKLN

CNc1nc(-c2ccc3c(N)n[nH]c3c2)cc(N2C[C@@H](C(=O)NC3CCCCC3)CC[C@H]2C)n1
residual activity (CSK (human); compound 0.01 µM): 103%
residual activity (CSK (human); compound 0.1 µM): 104%
residual activity (CSK (human); compound 1.0 µM): 100%
residual activity (MAPK10 (human); compound 0.01 µM): 106%
residual activity (MAPK10 (human); compound 0.1 µM): 106%
residual activity (MAPK10 (human); compound 1.0 µM): 100%
residual activity (NUAK1 (human); compound 0.01 µM): 120%
residual activity (NUAK1 (human); compound 0.1 µM): 105%
residual activity (NUAK1 (human); compound 1.0 µM): 47%
residual activity (AURKA (human); compound 0.01 µM): 112%
residual activity (AURKA (human); compound 0.1 µM): 115%
residual activity (AURKA (human); compound 1.0 µM): 92%
residual activity (SRC (human); compound 0.01 µM): 101%
residual activity (SRC (human); compound 0.1 µM): 105%
residual activity (SRC (human); compound 1.0 µM): 97%
residual activity (NEK2 (human); compound 0.01 µM): 118%
residual activity (NEK2 (human); compound 0.1 µM): 118%
residual activity (NEK2 (human); compound 1.0 µM): 106%
residual activity (CaMK1 (human); compound 0.01 µM): 108%
residual activity (CaMK1 (human); compound 0.1 µM): 112%
residual activity (CaMK1 (human); compound 1.0 µM): 117%
residual activity (ROCK2 (rat); compound 0.01 µM): 96%
residual activity (ROCK2 (rat); compound 0.1 µM): 92%
residual activity (ROCK2 (rat); compound 1.0 µM): 70%
residual activity (PIM1 (human); compound 0.01 µM): 99%
residual activity (PIM1 (human); compound 0.1 µM): 100%
residual activity (PIM1 (human); compound 1.0 µM): 98%
residual activity (DYRK2 (human); compound 0.01 µM): 100%
residual activity (DYRK2 (human); compound 0.1 µM): 108%
residual activity (DYRK2 (human); compound 1.0 µM): 102%
residual activity (SYK (human); compound 0.01 µM): 109%
residual activity (SYK (human); compound 0.1 µM): 105%
residual activity (SYK (human); compound 1.0 µM): 103%
residual activity (MAPKAPK5 (human); compound 0.01 µM): 81%
residual activity (MAPKAPK5 (human); compound 0.1 µM): 92%
residual activity (MAPKAPK5 (human); compound 1.0 µM): 76%
residual activity (MAPK15 (human); compound 0.01 µM): 106%
residual activity (MAPK15 (human); compound 0.1 µM): 117%
residual activity (MAPK15 (human); compound 1.0 µM): 107%
residual activity (MARK3 (human); compound 0.01 µM): 113%
residual activity (MARK3 (human); compound 0.1 µM): 109%
residual activity (MARK3 (human); compound 1.0 µM): 114%
residual activity (RIPK2 (human); compound 0.01 µM): 110%
residual activity (RIPK2 (human); compound 0.1 µM): 114%
residual activity (RIPK2 (human); compound 1.0 µM): 107%
residual activity (HIPK1 (human); compound 0.01 µM): 102%
residual activity (HIPK1 (human); compound 0.1 µM): 105%
residual activity (HIPK1 (human); compound 1.0 µM): 102%
residual activity (PAK7 (human); compound 0.01 µM): 97%
residual activity (PAK7 (human); compound 0.1 µM): 101%
residual activity (PAK7 (human); compound 1.0 µM): 94%
residual activity (INSRR (human); compound 0.01 µM): 111%
residual activity (INSRR (human); compound 0.1 µM): 111%
residual activity (INSRR (human); compound 1.0 µM): 109%
residual activity (EEF2K (human); compound 0.01 µM): 108%
residual activity (EEF2K (human); compound 0.1 µM): 100%
residual activity (EEF2K (human); compound 1.0 µM): 97%
residual activity (YES1 (human); compound 0.01 µM): 122%
residual activity (YES1 (human); compound 0.1 µM): 119%
residual activity (YES1 (human); compound 1.0 µM): 101%
residual activity (RPS6KA1 KD1 KD2 (human); compound 0.01 µM): 123%
residual activity (RPS6KA1 KD1 KD2 (human); compound 0.1 µM): 113%
residual activity (RPS6KA1 KD1 KD2 (human); compound 1.0 µM): 94%
residual activity (IGF1R (human); compound 0.01 µM): 126%
residual activity (IGF1R (human); compound 0.1 µM): 115%
residual activity (IGF1R (human); compound 1.0 µM): 107%
residual activity (CSNK2A1 (human); compound 0.01 µM): 103%
residual activity (CSNK2A1 (human); compound 0.1 µM): 104%
residual activity (CSNK2A1 (human); compound 1.0 µM): 94%
residual activity (MELK (human); compound 0.01 µM): 115%
residual activity (MELK (human); compound 0.1 µM): 77%
residual activity (MELK (human); compound 1.0 µM): 23%
residual activity (LCK (mouse); compound 0.01 µM): 112%
residual activity (LCK (mouse); compound 0.1 µM): 107%
residual activity (LCK (mouse); compound 1.0 µM): 114%
residual activity (MAPK13 (human); compound 0.01 µM): 106%
residual activity (MAPK13 (human); compound 0.1 µM): 113%
residual activity (MAPK13 (human); compound 1.0 µM): 108%
residual activity (GSK3B (human); compound 0.01 µM): 108%
residual activity (GSK3B (human); compound 0.1 µM): 111%
residual activity (GSK3B (human); compound 1.0 µM): 109%
residual activity (IKBKE (human); compound 0.01 µM): 114%
residual activity (IKBKE (human); compound 0.1 µM): 97%
residual activity (IKBKE (human); compound 1.0 µM): 74%
residual activity (PAK4 (human); compound 0.01 µM): 108%
residual activity (PAK4 (human); compound 0.1 µM): 117%
residual activity (PAK4 (human); compound 1.0 µM): 106%
